Experimental data as given in patent US10227357B2, “Compounds and methods for kinase modulation, and indications therefor” (Plexxikon Inc., priority 2012, dated 2019).

Columns and labels:
c-kit mutant D816V = molecular target: T1, c-kit mutant D816V (Homo sapiens, UniProt P10721, D816V/DEL694-753); experiment: c-Kit mutant D816V biochemical assay, AlphaScreen; details: c-kit D816V biochemical inhibitory activity; read-out: Biochemical activity (IC50 μM) Kit D816V
T1 construct: residues 551-934, kinase insertion domain residues 694-753 deleted; 6x-histidine (N); made in house; host or cells: E. coli Arctic Express (DE3) RIL (Stratagene)
Method in brief: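 Eight-point, threefold compound series incubated 30 min at room temperature with E. coli-produced D816V kinase, 10 μM ATP, Mg2+/Mn2+ HEPES buffer pH 7.2 and 5% DMSO. After EDTA stop, streptavidin and anti-phosphotyrosine (PY20) AlphaScreen beads gave the read-out, and IC50 was fitted from the concentration–signal curve.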

c-kit kinase = molecular target: T2, c-kit kinase (Homo sapiens, UniProt P10721); experiment: c-Kit biochemical assay, AlphaScreen, 10 μM ATP; details: c-kit biochemical inhibitory activity; read-out: Biochemical activity (IC50 μM) Kit
T2 construct: The c-kit (or kinase domain thereof) is an active kinase in AlphaScreen; poly-Histidine tag (in-house protein only) (cleaved yes); host or cells: E. coli BL21(DE3)RIL, co-expressed with PTP1B
Method in brief: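 His-tagged c-Kit expressed in E. coli with co-expressed PTP1B (dephosphorylated), tag removed; 0.1 ng per reaction with biotinylated-peptide substrate in 50 mM HEPES pH 7.2, 5 mM MgCl2, 5 mM MnCl2, 5% DMSO, 10 μM ATP, 1 h at room temperature. Phosphorylation detected by AlphaScreen (streptavidin donor, PY20 acceptor beads); IC50 from 8-point 1:3 dilution series.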

T1 sequence (P10721 with tags, fused parts or gaps DEL694-753/D816V): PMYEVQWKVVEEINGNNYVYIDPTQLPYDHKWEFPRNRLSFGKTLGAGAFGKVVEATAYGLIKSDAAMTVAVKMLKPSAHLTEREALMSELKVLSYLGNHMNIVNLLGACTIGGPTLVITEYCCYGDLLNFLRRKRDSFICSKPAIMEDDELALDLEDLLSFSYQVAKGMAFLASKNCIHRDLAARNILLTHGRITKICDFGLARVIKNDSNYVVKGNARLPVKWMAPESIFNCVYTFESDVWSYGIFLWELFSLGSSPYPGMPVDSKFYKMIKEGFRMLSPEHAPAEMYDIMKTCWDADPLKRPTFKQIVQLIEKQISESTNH
T2 sequence (P10721 26-976): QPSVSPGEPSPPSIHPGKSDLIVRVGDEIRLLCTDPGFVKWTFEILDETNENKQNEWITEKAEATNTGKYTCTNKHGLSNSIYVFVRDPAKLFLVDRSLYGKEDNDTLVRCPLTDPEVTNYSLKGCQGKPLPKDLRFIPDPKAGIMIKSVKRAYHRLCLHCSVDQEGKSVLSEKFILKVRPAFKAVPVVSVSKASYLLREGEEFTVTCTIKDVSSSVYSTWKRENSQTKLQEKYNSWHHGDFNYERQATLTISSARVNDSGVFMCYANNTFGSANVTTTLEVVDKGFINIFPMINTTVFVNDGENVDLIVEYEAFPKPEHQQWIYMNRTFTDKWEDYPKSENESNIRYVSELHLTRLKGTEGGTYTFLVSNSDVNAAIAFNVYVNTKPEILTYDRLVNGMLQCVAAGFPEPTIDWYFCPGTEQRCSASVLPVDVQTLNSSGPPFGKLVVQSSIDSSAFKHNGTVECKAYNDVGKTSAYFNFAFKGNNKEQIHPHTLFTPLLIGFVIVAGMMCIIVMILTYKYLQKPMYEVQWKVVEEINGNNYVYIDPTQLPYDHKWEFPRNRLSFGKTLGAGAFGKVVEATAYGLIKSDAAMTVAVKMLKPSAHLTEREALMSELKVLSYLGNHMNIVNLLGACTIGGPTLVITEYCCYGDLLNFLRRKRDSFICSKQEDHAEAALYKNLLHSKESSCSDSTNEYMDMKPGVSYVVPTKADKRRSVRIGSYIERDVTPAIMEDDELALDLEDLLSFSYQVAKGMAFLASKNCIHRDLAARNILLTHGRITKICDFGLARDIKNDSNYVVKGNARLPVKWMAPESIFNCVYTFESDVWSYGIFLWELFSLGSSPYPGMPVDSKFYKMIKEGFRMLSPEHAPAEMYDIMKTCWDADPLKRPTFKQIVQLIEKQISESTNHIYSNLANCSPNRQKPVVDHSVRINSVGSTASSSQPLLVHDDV

Compound: Cc1ccc(-c2cc3c(N4CCN(C(=O)N[C@@H](C)c5cccc(F)c5)C(C)(C)C4)ncnc3[nH]2)cn1 [P-0007, N-[(1S)-1-(3-fluorophenyl)ethyl]-2,2-dimethyl-4-[6-(6-methyl-3-pyridyl)-7H-pyrrolo[2,3-d]pyrimidin-4-yl]piperazine-1-carboxamide]
- IC50 (c-kit mutant D816V): 0.0001 to 1 µM
- IC50 (c-kit kinase): 10 to 200 µM

Compound: C[C@H](NC(=O)N1CCN(c2ncnc3[nH]c(-c4ccc(C#N)cc4)cc23)CC1)c1cccc(Cl)c1 [P-0697, N-[(1S)-1-(3-chlorophenyl)ethyl]-4-[6-(4-cyanophenyl)-7H-pyrrolo[2,3-d]pyrimidin-4-yl]piperazine-1-carboxamide]
- IC50 (c-kit mutant D816V): 0.0001 to 1 µM
- IC50 (c-kit kinase): 1 to 10 µM

Compound: Cn1cc(-c2cc3c(N4CCC(NS(=O)(=O)c5cc(Cl)cs5)CC4)ncnc3[nH]2)cn1 [P-0462, 4-chloro-N-[1-[6-(1-methylpyrazol-4-yl)-7H-pyrrolo[2,3-d]pyrimidin-4-yl]-4-piperidyl]thiophene-2-sulfonamide]
- IC50 (c-kit mutant D816V): 0.0001 to 1 µM
- IC50 (c-kit kinase): 1 to 10 µM

Compound: C[C@H](NC(=O)N1CCN(c2ncnc3[nH]c(-c4ccc(Cl)cc4)cc23)C[C@H]1C)c1ccc(Cl)cc1 [P-0020, (2R)-N-[(1S)-1-(4-chlorophenyl)ethyl]-4-[6-(4-chlorophenyl)-7H-pyrrolo[2,3-d]pyrimidin-4-yl]-2-methyl-piperazine-1-carboxamide]
- IC50 (c-kit mutant D816V): 1 to 10 µM
- IC50 (c-kit kinase): 1 to 10 µM

Compound: O=C(Nc1ccc(OC(F)(F)F)cc1)N1CCN(c2ncnc3[nH]c(-c4cnc(C5CC5)nc4)cc23)CC1 [P-0112, 4-[6-(2-cyclopropylpyrimidin-5-yl)-7H-pyrrolo[2,3-d]pyrimidin-4-yl]-N-[4-(trifluoromethoxy)phenyl]piperazine-1-carboxamide]
- IC50 (c-kit mutant D816V): 10 to 200 µM
- IC50 (c-kit kinase): 1 to 10 µM

Compound: Cc1nc(C)c(-c2cc3ncnc(N4CCN(C(=O)N[C@@H](C)c5cccc(Cl)c5)C(C)(C)C4)c3s2)s1 [P-0557, N-[(1S)-1-(3-chlorophenyl)ethyl]-4-[6-(2,4-dimethylthiazol-5-yl)thieno[3,2-d]pyrimidin-4-yl]-2,2-dimethyl-piperazine-1-carboxamide]
- IC50 (c-kit mutant D816V): 0.0001 to 1 µM
- IC50 (c-kit kinase): 10 to 200 µM

Compound: COc1cc2ncnc(-c3ccc(NS(C)(=O)=O)cc3F)c2cc1OC [P-0271, N-[4-(6,7-dimethoxyquinazolin-4-yl)-3-fluoro-phenyl]methanesulfonamide]
- IC50 (c-kit mutant D816V): 0.0001 to 1 µM
- IC50 (c-kit kinase): 1 to 10 µM

Compound: O=S(=O)(NCc1ccc(F)cc1)c1ccc(-c2ncnc3[nH]c(-c4ccc(F)cc4)cc23)c(F)c1 [P-0354, 3-fluoro-N-[(4-fluorophenyl)methyl]-4-[6-(4-fluorophenyl)-7H-pyrrolo[2,3-d]pyrimidin-4-yl]benzenesulfonamide]
- IC50 (c-kit mutant D816V): 0.0001 to 1 µM
- IC50 (c-kit kinase): 10 to 200 µM

Compound: CCCNC(=O)N1CCN(c2ncnc3[nH]c(-c4cccnc4)cc23)CC1 [P-0218, N-propyl-4-[6-(3-pyridyl)-7H-pyrrolo[2,3-d]pyrimidin-4-yl]piperazine-1-carboxamide]
- IC50 (c-kit mutant D816V): 1 to 10 µM
- IC50 (c-kit kinase): 10 to 200 µM

Compound: Cc1nn(C)cc1-c1cc2ncnc(N3CCN(C(=O)N[C@@H](C)c4cccc(Cl)c4)C(C)(C)C3)c2s1 [P-0564, N-[(1S)-1-(3-chlorophenyl)ethyl]-4-[6-(1,3-dimethylpyrazol-4-yl)thieno[3,2-d]pyrimidin-4-yl]-2,2-dimethyl-piperazine-1-carboxamide]
- IC50 (c-kit mutant D816V): 0.0001 to 1 µM
- IC50 (c-kit kinase): 1 to 10 µM

Compound: O=C(NCc1ccc(F)cc1)N1CCN(c2ncnc3[nH]c(-c4ccc(Cl)cc4)cc23)CC1 [P-0213, 4-[6-(4-chlorophenyl)-7H-pyrrolo[2,3-d]pyrimidin-4-yl]-N-[(4-fluorophenyl)methyl]piperazine-1-carboxamide]
- IC50 (c-kit mutant D816V): 10 to 200 µM
- IC50 (c-kit kinase): 10 to 200 µM

Compound: COc1cccc([C@@H](C)NC(=O)N2CCN(c3ncnc4[nH]c(-c5ccc(F)cc5)cc34)C[C@H]2C)c1 [P-0032, (2R)-4-[6-(4-fluorophenyl)-7H-pyrrolo[2,3-d]pyrimidin-4-yl]-N-[(1R)-1-(3-methoxyphenyl)ethyl]-2-methyl-piperazine-1-carboxamide]
- IC50 (c-kit mutant D816V): 1 to 10 µM
- IC50 (c-kit kinase): 10 to 200 µM

Compound: Cc1nn(C)c(C)c1-c1cc2ncnc(N3CCN(C(=O)NCc4ccc(F)cc4)CC3)c2s1 [P-0618, N-[(4-fluorophenyl)methyl]-4-[6-(1,3,5-trimethylpyrazol-4-yl)thieno[3,2-d]pyrimidin-4-yl]piperazine-1-carboxamide]
- IC50 (c-kit mutant D816V): 1 to 10 µM
- IC50 (c-kit kinase): 1 to 10 µM

Compound: Cc1cc2c(-c3ccc(NS(=O)(=O)c4ccc(C)s4)cc3)ncnc2[nH]1 [P-0313, 5-methyl-N-[4-(6-methyl-7H-pyrrolo[2,3-d]pyrimidin-4-yl)phenyl]thiophene-2-sulfonamide]
- IC50 (c-kit mutant D816V): 1 to 10 µM
- IC50 (c-kit kinase): 1 to 10 µM

Compound: COc1cccc([C@@H](C)NC(=O)N2CCN(c3ncnc4cc(-c5cn(C)nc5C)sc34)C[C@H]2C)c1 [P-0608, (2R)-4-[6-(1,3-dimethylpyrazol-4-yl)thieno[3,2-d]pyrimidin-4-yl]-N-[(1R)-1-(3-methoxyphenyl)ethyl]-2-methyl-piperazine-1-carboxamide]
- IC50 (c-kit mutant D816V): 0.0001 to 1 µM
- IC50 (c-kit kinase): 10 to 200 µM

Compound: O=C(Nc1ccccc1Cl)N1CCN(c2ncnc3[nH]c(-c4ccccc4)cc23)CC1 [P-0237, N-(2-chlorophenyl)-4-(6-phenyl-7H-pyrrolo[2,3-d]pyrimidin-4-yl)piperazine-1-carboxamide]
- IC50 (c-kit mutant D816V): 1 to 10 µM
- IC50 (c-kit kinase): 0.0001 to 1 µM

Compound: C[C@H](NC(=O)N1CCN(c2ncnc3[nH]c(-c4ccc(C#N)cc4)cc23)C[C@H]1C)c1ccc(Cl)cc1 [P-0691, (2R)-N-[(1S)-1-(4-chlorophenyl)ethyl]-4-[6-(4-cyanophenyl)-7H-pyrrolo[2,3-d]pyrimidin-4-yl]-2-methyl-piperazine-1-carboxamide]
- IC50 (c-kit mutant D816V): 0.0001 to 1 µM
- IC50 (c-kit kinase): 10 to 200 µM

Compound: CN(C)C(=O)c1cccc(-c2cc3c(N4CCN(C(=O)Nc5ccc(OC(F)(F)F)cc5)CC4)ncnc3[nH]2)c1 [P-0085, 4-[6-[3-(dimethylcarbamoyl)phenyl]-7H-pyrrolo[2,3-d]pyrimidin-4-yl]-N-[4-(trifluoromethoxy)phenyl]piperazine-1-carboxamide]
- IC50 (c-kit mutant D816V): 0.0001 to 1 µM
- IC50 (c-kit kinase): 0.0001 to 1 µM

Compound: N#Cc1ccc(-c2cc3c(N4CCN(C(=O)Nc5ccc(OC(F)(F)F)cc5)CC4)ncnc3[nH]2)cc1 [P-0086, 4-[6-(4-cyanophenyl)-7H-pyrrolo[2,3-d]pyrimidin-4-yl]-N-[4-(trifluoromethoxy)phenyl]piperazine-1-carboxamide]
- IC50 (c-kit mutant D816V): 0.0001 to 1 µM
- IC50 (c-kit kinase): 1 to 10 µM

Compound: COc1cccc([C@H](C)NC(=O)N2CCN(c3ncnc4[nH]c(-c5cnn(C)c5)cc34)CC2)c1 [P-0093, N-[(1S)-1-(3-methoxyphenyl)ethyl]-4-[6-(1-methylpyrazol-4-yl)-7H-pyrrolo[2,3-d]pyrimidin-4-yl]piperazine-1-carboxamide]
- IC50 (c-kit mutant D816V): 0.0001 to 1 µM
- IC50 (c-kit kinase): 0.0001 to 1 µM

Compound: COc1cc(NC(=O)N2CCN(c3ncnc4[nH]c(-c5cccnc5)cc34)CC2)cc(OC)c1 [P-0229, N-(3,5-dimethoxyphenyl)-4-[6-(3-pyridyl)-7H-pyrrolo[2,3-d]pyrimidin-4-yl]piperazine-1-carboxamide]
- IC50 (c-kit mutant D816V): 0.0001 to 1 µM
- IC50 (c-kit kinase): 1 to 10 µM

Compound: Cc1ccc(-c2cc3c(N4CCN(C(=O)Nc5ccc(OC(F)(F)F)cc5)CC4)ncnc3[nH]2)cn1 [P-0115, 4-[6-(6-methyl-3-pyridyl)-7H-pyrrolo[2,3-d]pyrimidin-4-yl]-N-[4-(trifluoromethoxy)phenyl]piperazine-1-carboxamide]
- IC50 (c-kit mutant D816V): 10 to 200 µM
- IC50 (c-kit kinase): 0.0001 to 1 µM
